Data taken from ChEMBL document CHEMBL1158584, “Mono-, di-, and triaryl substituted tetrahydropyrans as cyclooxygenase-2 and tumor growth inhibitors. Synthesis and biological evaluation” (J Med Chem, 2010).
pIC50: −log10 of the molar value.

Experiments:
[1] = biological target: T1, Prostaglandin G/H synthase 1 (Ovis aries) (UniProt P05979); test: Inhibition of ovine COX1 assessed as inhibition of PGF2a formation at 100 uM after 20 mins by Ellman's method
T1 sequence (whole entry): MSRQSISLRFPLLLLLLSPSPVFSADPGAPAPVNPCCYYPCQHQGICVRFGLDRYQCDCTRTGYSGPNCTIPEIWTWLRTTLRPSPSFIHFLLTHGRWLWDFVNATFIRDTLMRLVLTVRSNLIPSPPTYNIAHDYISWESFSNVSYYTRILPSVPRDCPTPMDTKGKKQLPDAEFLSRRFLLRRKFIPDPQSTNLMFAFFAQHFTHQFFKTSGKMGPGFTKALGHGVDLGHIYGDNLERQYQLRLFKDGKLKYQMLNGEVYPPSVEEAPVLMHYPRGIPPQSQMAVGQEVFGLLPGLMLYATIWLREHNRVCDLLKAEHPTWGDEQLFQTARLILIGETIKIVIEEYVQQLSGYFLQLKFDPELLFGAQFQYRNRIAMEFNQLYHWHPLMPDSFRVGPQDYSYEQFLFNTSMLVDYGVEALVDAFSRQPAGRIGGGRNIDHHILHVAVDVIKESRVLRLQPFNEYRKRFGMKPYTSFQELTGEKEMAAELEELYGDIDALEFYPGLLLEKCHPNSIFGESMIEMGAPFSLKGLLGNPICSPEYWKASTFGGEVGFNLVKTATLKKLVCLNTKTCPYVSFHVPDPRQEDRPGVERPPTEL

[2] = biological target: T1, Prostaglandin G/H synthase 1 (Ovis aries); test: Inhibition of ovine COX1 assessed as inhibition of PGF2a formation at 10 uM after 20 mins by Ellman's method
[3] = biological target: T2, Prostaglandin G/H synthase 1 (Ovis aries, UniProt P05979); test: Inhibition of ovine COX1 assessed as inhibition of PGF2a formation after 20 mins by Ellman's method
T2 sequence (P05979 whole entry): T1 sequence (whole entry)

[4] = biological target: T1, Prostaglandin G/H synthase 1 (Ovis aries); test: Inhibition of ovine COX1 assessed as inhibition of PGF2a formation at 1 uM after 20 mins by Ellman's method
[5] = Growth inhibition of human NCI60 cells after 48 hrs by sulforhodamine B assay; type: functional; conditions: NCI60, 48 h
[6] = biological target: T1, Prostaglandin G/H synthase 1 (Ovis aries); test: Inhibition of ovine COX1 assessed as inhibition of PGF2a formation at 100 nM after 20 mins by Ellman's method
[7] = biological target: T1, Prostaglandin G/H synthase 1 (Ovis aries); test: Inhibition of ovine COX1 assessed as inhibition of PGF2a formation at 0.01 uM after 20 mins by Ellman's method

SMILES | inhibition [1] [%] | inhibition [2] [%] | pIC50 [3] | inhibition [4] [%] | GI50 [5] [nM] | CC50 ([5]; read-out: LC50 (the source's name)) [nM] | inhibition [6] [%] | inhibition [7] [%]
CCSC[C@@H]1C[C@](O)(c2ccccc2)[C@@H](c2ccccc2)[C@H](c2ccc(Br)cc2)O1 (relative stereo) | 60 | 38 | 4.62 | 41 | – | – | – | –
Cc1ccc(-c2cc(C(F)(F)F)nn2-c2ccc(S(N)(=O)=O)cc2)cc1 [CELECOXIB] | – | – | – | – | 17500 | 63300 | – | –
N#CSC[C@@H]1C[C@@](O)(c2ccccc2)C[C@H](c2ccccc2)O1 (relative stereo) | – | 94 | 5.55 | 39 | – | – | 26 | –
C[C@H]1C[C@](O)(c2ccccc2)C[C@@H](CSC#N)O1 (relative stereo) | 65 | 60 | 6.43 | 55 | – | – | 38 | 32
CCSC[C@@H]1C[C@@](O)(c2ccccc2)C[C@H](C)O1 (relative stereo) | 62 | 55 | 6.46 | 51 | – | – | 40 | 32
CCSC[C@@H]1C[C@@](O)(c2ccccc2)C[C@H](c2ccc(Cl)cc2)O1 (relative stereo) | – | 94 | 6.38 | 60 | – | – | 45 | –
CCSC[C@@H]1C[C@@](O)(c2ccccc2)C[C@H](c2ccc(Br)cc2)O1 (relative stereo) | – | 94 | 6.25 | 58 | – | – | 40 | –
N#CSC[C@@H]1C[C@](O)(c2ccccc2)[C@@H](c2ccccc2)[C@H](c2ccccc2)O1 (relative stereo) | 50 | 27 | 4.19 | 24 | – | – | – | –
CCSC[C@@H]1C[C@](O)(c2ccccc2)[C@@H](c2ccccc2)[C@H](c2ccccc2)O1 (relative stereo) | 52 | 38 | 4.86 | 16 | – | – | – | –
CCSC[C@@H]1C[C@@](O)(c2ccccc2)C[C@H](c2ccccc2)O1 (relative stereo) | – | 94 | 5.53 | 37 | – | – | 25 | –
N#CSC[C@@H]1C[C@@](O)(c2ccccc2)C[C@H](c2ccc(Br)cc2)O1 (relative stereo) | – | 94 | 6.68 | 65 | – | – | 48 | –
N#CSC[C@@H]1C[C@](O)(c2ccccc2)[C@@H](c2ccccc2)[C@H](c2ccc(Br)cc2)O1 (relative stereo) | 50 | 29 | 4.89 | 28 | – | – | – | –
